# Measurements as given in patent US8859628B2, “Method for preventing, treating and diagnosing disorders of protein aggregation” (priority 2003, dated 2014).
# Key:
# TgCRND8 mice [1] = experiment: Cerebral Aβ content (Aβ40 and Aβ42 kits on hemi-brain homogenates); type: in vivo, mouse; parameters: Total Aβ: unit not given here
# Protocol: (§1) Plasma and Cerebral Aβ Content—Hemi-brain samples were homogenized in a buffered sucrose solution, followed by either 0.4% diethylamine/100 mM NaCl for soluble Aβ levels or cold formic acid for the isolation of total Aβ. After neutralization the samples were diluted and analyzed for Aβ40 and Aβ42 using commercially available kits (BIOSOURCE International). Each hemisphere was analyzed in triplicate with the mean±SEM reported. Western blot analyses were performed on all fractions using urea gels for Aβ species analyses. Aβ was detected using 6E10 (BIOSOURCE International) and Enhanced Chemiluminenscence (Amersham).
# as §1, with “reported.” for “reported. Western blot analyses were performed on all fractions using urea gels for Aβ species analyses. Aβ was detected using 6E10 (BIOSOURCE International) and Enhanced Chemiluminenscence (Amersham).”
# TgCRND8 mice [2] = experiment: Plasma Aβ levels; type: in vivo, mouse
# Protocol: as §1
# as §1, with “reported.” for “reported. Western blot analyses were performed on all fractions using urea gels for Aβ species analyses. Aβ was detected using 6E10 (BIOSOURCE International) and Enhanced Chemiluminenscence (Amersham).”
# [3] = 1 month treatment from 5 months of age
# [4] = prevention, 6 months of age, vs untreated TgCRND8
# [5] = prevention, four months of age, vs untreated TgCRND8
smiles,measurement,setting,value
"O[C@H]1[C@H](O)[C@@H](O)[C@H](O)[C@@H](O)[C@@H]1O [Scyllo-Inositol, scyllo-inositol]",Aβ load vs untreated,TgCRND8 mice [1]; [3],significantly decreased the plaque burden and the Aβ load
same,Total Aβ,"TgCRND8 mice [1]; 1 month treatment, 30 mg/mouse/day from 5 months, analyzed at 6 months of age",15194 ± 579
same,Total Aβ,"TgCRND8 mice [1]; 4 month prevention, 30 mg/mouse/day from 6 weeks of age",5089 ± 173
same,Total Aβ,"TgCRND8 mice [1]; 6 month prevention, 30 mg/mouse/day from 6 weeks of age",15621 ± 151
same,reduction in Aβ40 levels,TgCRND8 mice [1]; [4],32%
same,reduction in Aβ42,TgCRND8 mice [1]; [4],20%
same,decrease of total brain Aβ40,TgCRND8 mice [1]; [5],62%
same,decrease of total brain Aβ42,TgCRND8 mice [1]; [5],22%
same,Plasma Aβ Levels,TgCRND8 mice [2]; 1 month treatment,1980 ± 146 pg/mL
same,effect on plasma Aβ levels in comparison to untreated (words),TgCRND8 mice [2]; [3],"Neither myo-inositol, epi-inositol nor scyllo-inositol treatment had any effect on plasma Aβ levels"
same,Plasma Aβ Levels Aβ40,TgCRND8 mice [2]; 2 month treatment,4507 ± 207 pg/mL
same,Plasma Aβ Levels Aβ42,TgCRND8 mice [2]; 2 month treatment,3035 ± 236 pg/mL
same,Plasma Aβ Levels,TgCRND8 mice [2]; 4 month prevention,952 ± 49 pg/mL
same,Plasma Aβ Levels,TgCRND8 mice [2]; 6 month prevention,905 ± 55 pg/mL
same,effect on plasma Aβ levels in comparison to untreated (words),"TgCRND8 mice [2]; prevention, 4- and 6-months of age",Neither epi-inositol nor scyllo-inositol treatment had any effect on plasma Aβ levels
